Source: paper PMC9120478 (Nature Communications, 2022)
Residue numbers refer to the chain shown, from its start. “And” between values parts separate entries of the source, which are not always exact repeats. Identical values can stand only once. Like-named read-outs stand apart in the source and are kept apart here.

Legend:
TRPV3-Y594A = biological target: T1, TRPV3-Y594A (Mus musculus, UniProt Q8K424, Y594A); assay: Fura-2 ratiometric Ca2+ measurement, control application of 2-APB; assay type: cell-based
T1 construct: expressed in transfected cells; host or cells: HEK 293 S GnTI- cells (baculovirus transduction)
T1 sequence (Q8K424 1-791 Y594A): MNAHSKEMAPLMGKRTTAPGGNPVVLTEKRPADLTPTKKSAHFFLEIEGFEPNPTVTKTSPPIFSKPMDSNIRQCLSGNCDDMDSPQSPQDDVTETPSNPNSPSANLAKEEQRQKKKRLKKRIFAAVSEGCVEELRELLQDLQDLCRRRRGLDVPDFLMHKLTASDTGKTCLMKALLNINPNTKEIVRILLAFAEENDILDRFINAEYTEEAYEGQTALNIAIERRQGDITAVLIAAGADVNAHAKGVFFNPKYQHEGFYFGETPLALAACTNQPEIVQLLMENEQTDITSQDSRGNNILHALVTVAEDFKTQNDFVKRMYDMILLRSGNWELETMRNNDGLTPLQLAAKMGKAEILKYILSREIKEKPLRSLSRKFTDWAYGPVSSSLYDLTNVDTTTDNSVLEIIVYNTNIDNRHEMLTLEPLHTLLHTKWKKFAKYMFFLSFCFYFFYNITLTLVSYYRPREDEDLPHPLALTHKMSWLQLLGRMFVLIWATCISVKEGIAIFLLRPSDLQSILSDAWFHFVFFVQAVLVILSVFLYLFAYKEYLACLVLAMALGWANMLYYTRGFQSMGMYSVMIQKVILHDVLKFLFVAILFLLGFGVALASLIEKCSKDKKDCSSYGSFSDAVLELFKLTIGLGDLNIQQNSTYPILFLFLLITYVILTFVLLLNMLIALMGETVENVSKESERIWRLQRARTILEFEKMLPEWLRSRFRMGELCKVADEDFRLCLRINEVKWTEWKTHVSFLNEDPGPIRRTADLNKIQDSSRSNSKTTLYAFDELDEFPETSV
Text: The portal site in TRPV3 has not been previously shown to bind small-molecule inhibitors. This site, however, was originally proposed to be an entry pathway for local anesthetics to the pore of sodium channels[47]–[49] and found to accommodate cannabidiol in TRPV2, a closely-related representative of the vanilloid subfamily of TRP channels. […] We concluded that the Y594A mutation altered gating properties of TRPV3 and excluded this mutant from further analysis.
GFP-free C-terminally strep-tagged wild-type TRPV3, TRPV3-Y564A, TRPV3-Y594A, TRPV3-F633A, TRPV3-I663W, and TRPV3-F666A were expressed in HEK 293 S GnTI^− cells as previously described[41],[42],[53]. In short, 48 h after transduction, 1-ml aliquots of cell suspension were collected by centrifugation at 550 g for 5 min using an Eppendorf 5424 centrifuge. […] The washed cell pellets were kept on ice in the dark before taking an aliquot for fluorescence measurements. […] Fluorescence measurements were conducted using a QuantaMaster 40 spectrofluorometer (Photon Technology International) at room temperature in a quartz cuvette under constant stirring. […] Changes in intracellular Ca^2+ were measured by taking the ratio of fluorescence emitted at 510 nm at the excitation wavelength of 340 nm and 380 nm. […]

wild-type TRPV3 = settings: cited from earlier work; for F340/F380 change normalized to approximated maximal value at saturating 2-APB: WT, published before
F666A mutant TRPV3 = biological target: T2, F666A mutant TRPV3 (Mus musculus, UniProt Q8K424, F666A); assay: Fura-2 ratiometric Ca2+ measurement, activation by 2-APB; assay type: cell-based; settings: for F340/F380 change normalized to approximated maximal value at saturating 2-APB: F666A
T2 construct: expressed in transfected cells; host or cells: HEK 293 S GnTI- cells (baculovirus transduction)
T2 sequence (Q8K424 1-791 F666A): T1 sequence (Q8K424 1-791 Y594A) with A594Y, F666A
Description: GFP-free C-terminally strep-tagged wild-type TRPV3, TRPV3-Y564A, TRPV3-Y594A, TRPV3-F633A, TRPV3-I663W, and TRPV3-F666A were expressed in HEK 293 S GnTI^− cells as previously described[41],[42],[53]. In short, 48 h after transduction, 1-ml aliquots of cell suspension were collected by centrifugation at 550 g for 5 min using an Eppendorf 5424 centrifuge. The cells were resuspended in the pre-warmed modified HEPES-buffered saline (HBS) containing 118 mM NaCl, 4.8 mM KCl, 1 mM MgCl2, 5 mM D-glucose, and 10 mM HEPES pH 7.4 and 5 μg/ml Fura-2 AM (Thermo Fisher Scientific) and incubated for 45 min at 37 °C. The Fura-2-loaded cells were then centrifuged for 5 min at 550 g, resuspended in the pre-warmed, modified HBS and incubated again for 30 min at 37 °C in the dark. The cells were subsequently pelleted and washed twice in the modified HBS. The washed cell pellets were kept on ice in the dark before taking an aliquot for fluorescence measurements. […] We used the lower CaCl2 concentration than before[42],[28] (2.5 mM) to minimize non-specific effects, which often appeared as a drift in the Fura-2 signal at high Ca^2+ concentration, presumably due to cell death as a result of calcium overload. Fluorescence measurements were conducted using a QuantaMaster 40 spectrofluorometer (Photon Technology International) at room temperature in a quartz cuvette under constant stirring. After 60 s since the beginning, the recording was paused and 2-APB was added. After the addition of 2-APB, the recording was continued for the additional 140 s. Changes in intracellular Ca^2+ were measured by taking the ratio of fluorescence emitted at 510 nm at the excitation wavelength of 340 nm and 380 nm. […] The data were processed using Origin 9.0 (OriginLab) software.

Question: What does the source list for `NCCOB(c1ccccc1)c1ccccc1` [2-APB]?
Answer: change in F340/F380 on control application of 2-APB, Y594A (TRPV3-Y594A): barely detectable changes; F340/F380 change normalized to approximated maximal value at saturating 2-APB (wild-type TRPV3; 2-APB Conc 3.2, single experiments): 0.1142 and 0.08511 and 0.06324 and 0.1042; F340/F380 change normalized to approximated maximal value at saturating 2-APB (wild-type TRPV3; 2-APB Conc 102.4, single experiments): 0.8797 and 0.5873 and 0.8594 and 0.9531; F340/F380 change normalized to approximated maximal value at saturating 2-APB (wild-type TRPV3; 2-APB Conc 204.8, single experiments): 0.97 and 1 and 0.6572 and 1.041; nHill of activation curve, wild-type TRPV3 (wild-type TRPV3; n = 4, published before): 1.19 ± 0.09; EC50 (wild-type TRPV3; n = 4, published before, read-out: EC50, 2-APB-induced activation of wild-type TRPV3): 27.4 ± 4.5 µM; F340/F380 change normalized to approximated maximal value at saturating 2-APB (F666A mutant TRPV3; 2-APB Conc 0.1, single experiments): 0.01591 and 0.01218 and 0.01441; F340/F380 change normalized to approximated maximal value at saturating 2-APB (F666A mutant TRPV3; 2-APB Conc 0.3, single experiments): 0.0415 and 0.03827 and 0.03455; F340/F380 change normalized to approximated maximal value at saturating 2-APB (F666A mutant TRPV3; 2-APB Conc 1, single experiments): 0.08549 and 0.07903 and 0.08027; F340/F380 change normalized to approximated maximal value at saturating 2-APB (F666A mutant TRPV3; 2-APB Conc 3, single experiments): 0.1735 and 0.1693 and 0.1578; F340/F380 change normalized to approximated maximal value at saturating 2-APB (F666A mutant TRPV3; 2-APB Conc 10, single experiments): 0.3611 and 0.3532 and 0.3454; F340/F380 change normalized to approximated maximal value at saturating 2-APB (F666A mutant TRPV3; 2-APB Conc 30, single experiments): 0.6328 and 0.6126 and 0.5903; F340/F380 change normalized to approximated maximal value at saturating 2-APB (F666A mutant TRPV3; 2-APB Conc 100, single experiments): 0.7746 and 0.7881 and 0.7839; F340/F380 change normalized to approximated maximal value at saturating 2-APB (F666A mutant TRPV3; 2-APB Conc 300, single experiments): 0.7811 and 0.756 and 0.8326; nHill of activation curve, F666A (F666A mutant TRPV3; n = 3): 0.80 ± 0.02; EC50 (F666A mutant TRPV3; n = 3, read-out: EC50, 2-APB-induced activation of F666A): 20.7 ± 0.9 µM
